# From patent EP4620956A1, “PARP1 INHIBITORS” (Zhejiang Yangli Pharmaceutical Technology Co., Ltd., priority 2022, dated 2024)
# Legend:
# [1] = test system: A549 PARP2-KO cell line; assay: Cellular PARylation inhibition, high-content imaging, PARP2-KO; assay type: cell-based; settings: PARylation at the cellular level
# [2] = test system: MDA-MB-436; assay: Anti-proliferative activity (CellTiter-Glo, 7 days), MDA-MB-436; assay type: cell-based, human; settings: for IC50: Homo sapiens, MDA-MB-436, 168 h, BRCA1-mutated, 7 days, read-out: MDA-MB-436 IC50
# [3] = test system: DLD-1 BRCA2^-/-; assay: Anti-proliferative activity (CellTiter-Glo, 7 days), DLD-1 BRCA2-/-; assay type: cell-based, human; settings: for IC50: Homo sapiens, DLD-1, 168 h, BRCA2-mutated, 7 days
# [4] = molecular target: T1, PARP2 (Homo sapiens, UniProt Q9UGN5); assay: Inhibition of PARP2 enzyme activity (chemiluminescence); assay type: biochemical
# T1 construct: purchased BPS 80502
# [5] = test system: A549 WT; assay: Cellular PARylation inhibition, high-content imaging, A549 WT; assay type: cell-based; settings: Homo sapiens, PARylation at the cellular level
# Procedure: The inhibitory effect of the compounds on PARP1/PARP2 enzyme activity at the cellular level was detected using high-content imaging. A549 WT, PARP1-KO and PARP2-KO cell lines were established in-house, and the cells were revived. After the cells were stable, a sufficient number of cells were collected and 100 µL of the cell suspension was seeded into a 96-well plate. The next day, the example compounds with serially diluted concentrations were added. […] The plate was incubated for 1.5 hours (A549 WT and PARP2-KO cell lines) or 2 hours (PARP1-KO cell line). After removing the supernatant, 0.4 mM H2O2 was added and incubation was carried out for 10 minutes (A549 WT and PARP2-KO cell lines) or 1.5 mM H2O2 was added and incubation was carried out for 15 minutes (PARP1-KO cell line) to induce extensive cellular DNA damage. After removing the supernatant, the cells were fixed with 4% paraformaldehyde for 20 minutes, followed by treatment with 0.5% Triton X-100 for 20 minutes to increase the permeability of the cell membrane. After that, the cells were incubated with 3% BSA for 1 hour to prevent non-specific binding. […] The cell nuclei were stained for 30 minutes by adding 50 µL DAPI (invitrogen, R37606). After washing twice with PBS, images were acquired on OPERETTA CLS™ (PE) by scanning the cells under a 20x water objective lens in non-confocal mode, with 5 fields of view captured per well. […] The inhibition rate was calculated using the fluorescence values from the Max and Min wells, and the dose-response curve was fitted using the analysis software GraphPad Prism 5 to obtain the IC50 value of each compound for the enzyme activity.
# [6] = test system: MDA-MB-231; assay: Anti-proliferative activity (CellTiter-Glo, 7 days), MDA-MB-231; assay type: cell-based, human; settings: for IC50: Homo sapiens, MDA-MB-231, 168 h, BRCA1-normal, 7 days, read-out: MDA-MB-231 IC50
# [7] = molecular target: T2, PARP1 (Homo sapiens, UniProt P09874); assay: DNA trapping capability of PARP1 (HTRF); assay type: biochemical
# T2 construct: purchased BPS 80501
# [8] = test system: DLD-1 WT; assay: Anti-proliferative activity (CellTiter-Glo, 7 days), DLD-1 WT; assay type: cell-based, human; settings: for IC50: Homo sapiens, DLD-1, 168 h, BRCA2-normal, 7 days
# Procedure: The anti-proliferation experiment of the compounds on tumour cells adopted the most widely used ATP concentration-based detection method at present. MDA-MB-231 and MDA-MB-436 cell lines were obtained from ATCC, DLD-1 human colourectal adenocarcinoma epithelial cells and DLD-1 BRCA2^-/- cells were obtained from Horizon, and the cells were revived. After the cells were stable, the cells were collected. When the viable cell count exceeded 90%, 450-500 cells were seeded into a 384-well plate. The next day, the example compounds with serially diluted concentrations were added. Only buffer was added to the Max well, and 50 µM AZD2281 was added to the Min well. The plate was incubated for 7 days, and on the eighth day, CellTiter-Glo® reagent (Promega, G7573) was added. The plate was incubated at room temperature for 30 minutes, and the values were read on Envision (PE). The inhibition rate was calculated using the fluorescence values from the Max and Min wells, and the dose-response curve was fitted using the analysis software GraphPad Prism 5 to obtain the IC50 value of each compound for the enzyme activity.
# [9] = molecular target: T1, PARP2; assay: DNA trapping capability of PARP2 (HTRF); assay type: biochemical
# [10] = test system: A549 PARP1-KO cell lines; assay: Cellular PARylation inhibition, high-content imaging, PARP1-KO; assay type: cell-based
# [11] = molecular target: T2, PARP1; assay: Inhibition of PARP1 enzyme activity (chemiluminescence); assay type: biochemical
# [12] = test system: MDA-MB-436 xenograft tumour; assay: Anti-tumour effect in MDA-MB-436 subcutaneous xenograft tumour mouse model; assay type: in vivo; settings: same dose, MDA-MB-436 xenograft mice
# Procedure: Example 4 was further verified in vivo. A subcutaneous xenograft tumour mouse model of the BRCA1-mutated MDA-MB-436 cell line was selected. Human breast cancer MDA-MB-436 cells (ATCC, HTB-130) were cultured in vitro in a monolayer, with the culture conditions of L-15 medium supplemented with 10% foetal bovine serum, 1% penicillin-streptomycin solution, and 0.01 mg/mL bovine insulin, and cultured at 37°C in a CO2-free incubator. The cells were routinely digested and passaged twice a week using trypsin-EDTA. When the cell confluency reached 80%-90%, the cells were harvested and counted, and 0.2 mL of 1 × 10^7 MDA-MB-436 cells were subcutaneously inoculated on the right back of each mouse (PBS : Matrigel = 1 : 1). When the mean tumour volume reached 152 mm^3, the mice were grouped for drug administration. The day of drug administration was set as Day 0. The tumour volume and the body weight of the mice were monitored twice a week, and the drug treatment lasted for 28 days.
# The diameter of the tumour was measured with a vernier calliper. The tumour volume is calculated according to the following equation: V = 0.5a × b^2, where a and b represent the long and short diameters of the tumour, respectively. The tumour inhibition effect of the compound was evaluated by relative tumour shrinkage rate Reg%. Reg% reflects the rate of tumour volume reduction after treatment. Reg% = (V0-Vt)/V0×100%, where V0 is the tumour volume measured at the time of grouping for drug administration (i.e., d0), and Vt is the tumour volume measured at a certain time point.
# The criteria for compound response in the mouse model were adapted from mRECIST (Modified Response Evaluation Criteria in Solid Tumours) (Gao et al, 2015), and are specifically defined as follows: [formula] • PR (Partial Response): BestResponse < −50% and BestAvgResponse < −20%; [formula] • SD (Stable Disease): BestResponse < 35% and BestAvgResponse < 30%; [formula] • PD (Progressive Disease): other cases; • ORR% is the sum of the proportions of Complete Response (CR) and Partial Response (PR).
# Statistical analysis was performed using Prism software, including the mean value (Mean) and standard error of the mean (SEM) of the tumour volume at each time point for each group. For the statistical analysis of TV, the original TV data from each measurement were used to compare the differences between groups. Two-way ANOVA was applied to include the two factors, i.e., drug administration and time for analysis, followed by the Tukey's multiple comparisons test, wherein p < 0.05 was considered statistically significant.
# [13] = molecular target: T3, PARP6 (Homo sapiens, UniProt Q2NL67); assay: Inhibition of PARP6 enzyme activity (chemiluminescence); assay type: biochemical
# T3 construct: purchased BPS 80506
# [14] = molecular target: T4, PARP11 (Homo sapiens, UniProt Q9NR21); assay: Inhibition of PARP11 enzyme activity (chemiluminescent assay kit); assay type: biochemical
# T4 construct: purchased BPS 80511
# T4 sequence (Q9NR21 1-338): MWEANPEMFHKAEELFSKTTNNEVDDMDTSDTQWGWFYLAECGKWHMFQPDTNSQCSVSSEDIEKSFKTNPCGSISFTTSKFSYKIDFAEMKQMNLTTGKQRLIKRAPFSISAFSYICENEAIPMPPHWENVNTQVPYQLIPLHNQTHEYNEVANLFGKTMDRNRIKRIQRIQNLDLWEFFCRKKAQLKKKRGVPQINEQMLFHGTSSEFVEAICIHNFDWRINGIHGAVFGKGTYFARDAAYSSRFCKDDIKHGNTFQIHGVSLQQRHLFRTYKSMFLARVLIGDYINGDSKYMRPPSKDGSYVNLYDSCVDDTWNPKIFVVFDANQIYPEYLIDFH
# [15] = ratio relative to the PARP1 enzyme activity
# T2 sequence (P09874 whole entry): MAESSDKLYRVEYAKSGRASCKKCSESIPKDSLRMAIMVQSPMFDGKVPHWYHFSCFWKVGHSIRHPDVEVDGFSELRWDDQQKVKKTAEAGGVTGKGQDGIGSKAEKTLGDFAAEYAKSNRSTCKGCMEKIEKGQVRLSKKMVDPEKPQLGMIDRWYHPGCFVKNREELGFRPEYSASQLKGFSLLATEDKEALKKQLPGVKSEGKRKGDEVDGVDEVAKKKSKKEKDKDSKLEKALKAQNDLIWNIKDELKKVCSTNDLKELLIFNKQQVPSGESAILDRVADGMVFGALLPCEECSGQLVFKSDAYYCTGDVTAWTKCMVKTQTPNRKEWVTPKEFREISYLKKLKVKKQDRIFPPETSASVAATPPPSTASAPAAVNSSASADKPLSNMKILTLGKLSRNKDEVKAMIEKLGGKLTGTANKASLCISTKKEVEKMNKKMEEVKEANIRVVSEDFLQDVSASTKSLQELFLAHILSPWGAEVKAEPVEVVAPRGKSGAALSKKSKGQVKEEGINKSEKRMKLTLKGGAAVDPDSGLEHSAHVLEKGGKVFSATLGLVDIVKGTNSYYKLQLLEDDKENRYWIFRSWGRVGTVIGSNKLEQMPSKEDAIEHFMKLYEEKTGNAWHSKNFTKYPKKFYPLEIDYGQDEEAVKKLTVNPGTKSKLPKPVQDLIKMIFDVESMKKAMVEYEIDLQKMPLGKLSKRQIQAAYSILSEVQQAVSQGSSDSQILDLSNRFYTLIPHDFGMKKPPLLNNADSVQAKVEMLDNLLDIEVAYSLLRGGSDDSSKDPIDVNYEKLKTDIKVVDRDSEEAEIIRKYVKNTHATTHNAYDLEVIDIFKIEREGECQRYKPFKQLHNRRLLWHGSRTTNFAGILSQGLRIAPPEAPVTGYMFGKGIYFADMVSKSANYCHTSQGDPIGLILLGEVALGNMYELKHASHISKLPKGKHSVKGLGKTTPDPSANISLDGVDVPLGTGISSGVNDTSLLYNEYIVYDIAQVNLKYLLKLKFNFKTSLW
# T1 sequence (Q9UGN5 whole entry): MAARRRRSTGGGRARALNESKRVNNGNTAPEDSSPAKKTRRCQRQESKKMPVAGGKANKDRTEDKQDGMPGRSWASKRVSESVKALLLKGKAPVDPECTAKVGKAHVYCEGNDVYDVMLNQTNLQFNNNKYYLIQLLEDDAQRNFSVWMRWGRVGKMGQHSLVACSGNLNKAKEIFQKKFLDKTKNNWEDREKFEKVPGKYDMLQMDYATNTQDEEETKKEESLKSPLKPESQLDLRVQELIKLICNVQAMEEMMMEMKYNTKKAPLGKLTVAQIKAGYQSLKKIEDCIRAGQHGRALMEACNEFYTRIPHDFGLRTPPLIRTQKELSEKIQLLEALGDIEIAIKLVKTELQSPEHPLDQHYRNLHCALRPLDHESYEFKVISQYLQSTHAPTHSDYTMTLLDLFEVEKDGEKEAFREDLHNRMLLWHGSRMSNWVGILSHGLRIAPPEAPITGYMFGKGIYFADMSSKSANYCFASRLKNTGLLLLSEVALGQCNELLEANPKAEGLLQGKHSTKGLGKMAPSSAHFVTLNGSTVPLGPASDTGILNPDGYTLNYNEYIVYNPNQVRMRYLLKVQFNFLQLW
# T3 sequence (Q2NL67 whole entry): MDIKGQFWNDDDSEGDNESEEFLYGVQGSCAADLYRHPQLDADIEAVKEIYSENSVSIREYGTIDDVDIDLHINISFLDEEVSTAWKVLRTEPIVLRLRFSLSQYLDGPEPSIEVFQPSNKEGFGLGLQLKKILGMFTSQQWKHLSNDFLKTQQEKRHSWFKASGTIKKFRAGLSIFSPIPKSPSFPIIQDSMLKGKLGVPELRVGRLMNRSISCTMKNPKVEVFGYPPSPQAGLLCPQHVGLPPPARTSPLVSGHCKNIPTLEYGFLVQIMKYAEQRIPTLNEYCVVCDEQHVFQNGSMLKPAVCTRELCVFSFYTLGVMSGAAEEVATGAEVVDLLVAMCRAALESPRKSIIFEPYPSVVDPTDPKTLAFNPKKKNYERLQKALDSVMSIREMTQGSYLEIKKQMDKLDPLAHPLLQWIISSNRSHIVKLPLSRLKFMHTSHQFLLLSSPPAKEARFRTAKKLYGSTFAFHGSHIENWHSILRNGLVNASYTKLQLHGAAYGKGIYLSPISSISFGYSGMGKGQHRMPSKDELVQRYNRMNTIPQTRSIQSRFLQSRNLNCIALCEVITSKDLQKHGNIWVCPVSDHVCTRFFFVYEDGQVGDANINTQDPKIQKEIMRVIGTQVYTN
compound,measurement,setting,value
"CCc1c(N)c2ncc(CN3CCN(c4ccc(C(=O)NOC)nc4F)CC3)cc2[nH]c1=O [Example 2, 5-(4-((8-Amino-7-ethyl-6-oxo-5,6-dihydro-1,5-naphthyridin-3-yl)methyl)piperazin-1-yl)-6-fluoro-N-methoxypicolinamide]",IC50,"[1]; Homo sapiens, A549, read-out: PARP2-KO IC50",0.0617 µM
same,PARP1 KO/PARP2 KO selectivity fold,[1],>648 fold
same,IC50,[2],0.00574 µM
same,BRCA1 mutation/WT selectivity fold,[2]; MDA-MB-231 vs MDA-MB-436,">1,742 fold"
same,BRCA2 mutation/WT selectivity fold,[3]; DLD-1 WT vs DLD-1 BRCA2^-/-,">1,162 fold"
same,IC50,[3],0.00862 µM
same,IC50,[4],0.017 µM
same,IC50,[5],0.0105 µM
same,inhibition on cell proliferation at the highest concentration,"[6]; BRCA1-normal MDA-MB-231 cell line, 10 µM",no detectable inhibition
same,IC50,[6],> 10 µM
same,EC50,[7],0.00373 µM
same,inhibition on cell proliferation at the highest concentration,"[8]; BRCA2-normal DLD-1 cell line, 10 µM",no detectable inhibition
same,IC50,[8],> 10 µM
same,EC50,[9],0.338 µM
same,inhibition on the enzyme activity at the highest concentration,"[10]; A549 PARP1-KO cell lines, 40 µM",no detectable inhibition
same,IC50,"[10]; Homo sapiens, A549, PARylation at the cellular level",> 40 µM
same,IC50,[11],0.00039 µM
same,PARP1/2 selectivity fold,[11]; PARP2 vs PARP1,44 fold
"CCc1cc2ncc(CN3CCN(c4ccc(C(=O)NC)nc4)CC3)cc2[nH]c1=O [AZD5305, reference compound]",tumour regression,[12]; FIG. 3,promoted tumour regression
same,ORR,[12]; treatment 28 days,20%
same,IC50,[2],0.00194 µM
same,IC50,[13]; enzyme activity,8.66 µM
same,PARP6 multiple vs PARP1,[13]; [15],"20,619"
same,IC50,[3],0.00212 µM
same,IC50,[14]; enzyme activity,0.0194 µM
same,PARP11 multiple vs PARP1,[14]; [15],46
same,IC50,[5],0.0022 µM
same,IC50,[6],> 10 µM
same,IC50,[8],> 10 µM
